Data published in patent publication US11945811B2, “Potassium channel inhibitors” (ACESION PHARMA APS, priority 2021, dated 2024).

target: T1, human SK3 channel (hKCa2.3) (Homo sapiens, UniProt Q9UGI6); experiment: Automated patch clamping (QPatch 16 HT whole-cell recordings); type: cell-based; settings: HEK-293 cells stably expressing hKCa2.3; currents measured at −80 mV; normalized to N-methyl bicuculline; read-out: IC50 in the Automated patch clamping assay (SK3 channel inhibition)
T1 construct: expressed in transfected cells
Protocol: Automated whole cell patch-clamp recordings were performed using a QPatch 16 HT system and single-hole Qplates (Sophion, Denmark) on HEK-293 cells stably expressing the human SK3 channel (hKCa2.3). Cells were cultured and prepared for experiments using normal cell culturing procedures. A total of 4-5 million cells were used per experiment. The Qpatch automatically generates giga sealing, whole-cell formation, compound application and recording of current. hKCa2.3 currents were recorded in symmetrical K^+ solutions. The intracellular/pipette solution contained 154 mM KCl, 10 mM HEPES and 10 mM EGTA. CaCl2 is added to give calculated free concentrations of Ca^2+ of 0.4 μM and MgCl2 is added to give a free concentration of 1 mM. In order to maintain a total [K^+] of 156 mM (corresponding to the concentration in the extracellular ringer) a fixed amount of KOH (15 mM) is added, thereafter pH is adjusted with HCl to pH=7.2. Expected osmolarity: 275 mOsm. Sucrose was added to a final osmolarity around 295 mosm. The extracellular solution consisted of (in mM): CaCl2 0.1, MgCl2 3, KCl 150, HEPES 10 and glucose 10, pH=7.4 adjusted with KOH. Osmolarity between 285-295 mosm. The cells were held at 0 mV and hKCa2.3 currents were elicited by a linear voltage ramp from −80 mV to +80 mV (200 ms in duration) applied every 5th second.
The compound application protocol consisted of 12 recording periods lasting 200 s: 1) Baseline recordings in extracellular solution; 2) Application of the positive control N-methyl bicuculline (100 μM), which is characterized by full efficacy, fast on- and off-rate; 3-4) Wash-out; 5-10) Increasing concentrations of test compound to establish an IC50 value; 11-12) Wash-out; 13) positive control with compound NS8593 (N-[(1R)-1,2,3,4-tetrahydro-1-naphthalenyl]-1H-benzimidazol-2-amine) (1 μM) or with N-methyl bicuculline (100 μM). Data were sampled at 10 kHz, 4th order Bessel filter, cut-off frequency 3 kHz. Currents were compensated for run-down. Potency was quantified as the concentration needed to inhibit half of the SK channel activity and reported as an IC50 value.
All effects of compounds of the present invention as tested were normalized to the observed inhibitory effect of N-methyl bicuculline. Currents were measured at −80 mV.

IC50	Compound
< 30000 nM	Cc1cc(NCc2cccc3[nH]c(NC(C)(CO)c4ccc(F)c(Cl)c4)nc23)no1 (single isomer, unassigned; (+)) [Example 12b, (+)-2-(3-chloro-4-fluorophenyl)-2-((4-(((5-methylisoxazol-3-yl)amino)methyl)-1H-benzo[d]imidazol-2-yl)amino)propan-1-ol]
< 1000 nM	Cc1cn(Cc2cccc3[nH]c(NC(C)(CO)c4cccc(OC(F)(F)F)c4)nc23)c(=N)o1 (single isomer, unassigned; (-)) [Example 30a, (−)-2-({4-[(2-imino-5-methyl-2,3-dihydro-1,3-oxazol-3-yl)methyl]-1H-1,3-benzodiazol-2-yl}amino)-2-[3-(trifluoromethoxy)-phenyl]propan-1-ol]
< 30000 nM	CC(CO)(Nc1nc2c(Cn3ccoc3=N)cccc2[nH]1)c1cccc(OC(F)(F)F)c1 (single isomer, unassigned) [Example 27b]
< 30000 nM	CC(CO)(Nc1nc2c(CNc3ccon3)cccc2[nH]1)c1cccc(Cl)c1F (single isomer, unassigned) [Example 43a]
< 30000 nM	CC(CO)(Nc1nc2c(Cn3ccoc3=N)cccc2[nH]1)c1cccc(C(F)(F)F)c1 (single isomer, unassigned; (+)) [Example 18b, (+)-2-({4-[(2-imino-2,3-dihydro-1,3-oxazol-3-yl)methyl]-1H-1,3-benzodiazol-2-yl}amino)-2-[3-(trifluoromethyl)-phenyl]propan-1-ol]
< 1000 nM	Cc1cc(NCc2cccc3[nH]c(NC(C)(CO)c4ccc(F)c(Cl)c4)nc23)no1 (single isomer, unassigned; (-)) [Example 12a, (−)-2-(3-chloro-4-fluorophenyl)-2-((4-(((5-methylisoxazol-3-yl)amino)methyl)-1H-benzo[d]imidazol-2-yl)amino)propan-1-ol]
< 30000 nM	CC(CO)(Nc1nc2c(CNc3ncco3)cccc2[nH]1)c1ccc(Cl)c(F)c1 (single isomer, unassigned; (-)) [Example 40a, (−)-2-(4-chloro-3-fluorophenyl)-2-[(4-{[(1,3-oxazol-2-yl)amino]methyl}-1H-1,3-benzodiazol-2-yl)amino]propan-1-ol]
< 1000 nM	CC(CO)(Nc1nc2c(Cn3ccoc3=N)cccc2[nH]1)c1cc(F)cc(Cl)c1 (single isomer, unassigned) [Example 45a]
< 30000 nM	CC(CO)(Nc1nc2c(Cn3ccoc3=N)cccc2[nH]1)c1ccc(Cl)c(Cl)c1 (single isomer, unassigned; (+)) [Example 19b, (+)-2-(3,4-dichlorophenyl)-2-({4-[(2-imino-2,3-dihydro-1,3-oxazol-3-yl)methyl]-1H-1,3-benzodiazol-2-yl}amino)propan-1-ol]
< 1000 nM	CC(CO)(Nc1nc2c(Cn3ccoc3=N)cccc2[nH]1)c1cccc(C(F)(F)F)c1 (single isomer, unassigned; (-)) [Example 18a, (−)-2-({4-[(2-imino-2,3-dihydro-1,3-oxazol-3-yl)methyl]-1H-1,3-benzodiazol-2-yl}amino)-2-[3-(trifluoromethyl)-phenyl]propan-1-ol]

Second part, the compound before the results:

Compound	IC50
CC(CO)(Nc1nc2c(Cn3ccoc3=N)cccc2[nH]1)c1cccc(Cl)c1 (stereo not drawn) [Example 3, 2-(3-chlorophenyl)-2-({4-[(2-imino-2,3-dihydro-1,3-oxazol-3-yl)methyl]-1H-1,3-benzodiazol-2-yl}amino)propan-1-ol]	< 1000 nM
COCC(C)(Nc1nc2c(Cn3c(C)coc3=N)cccc2[nH]1)c1cccc(Cl)c1 (stereo not drawn) [Example 10, N-[2-(3-chlorophenyl)-1-methoxypropan-2-yl]-4-[(2-imino-4-methyl-2,3-dihydro-1,3-oxazol-3-yl)methyl]-1H-1,3-benzodiazol-2-amine]	< 30000 nM
CC(CO)(Nc1nc2c(Cn3ccoc3=N)cccc2[nH]1)c1cccc(OC(F)(F)F)c1 (stereo not drawn) [Example 27, 2-({4-[(2-imino-2,3-dihydro-1,3-oxazol-3-yl)methyl]-1H-1,3-benzodiazol-2-yl}amino)-2-[3-(trifluoromethoxy)phenyl]propan-1-ol]	< 1000 nM
CC(CO)(Nc1nc2c(Cn3ccoc3=N)cccc2[nH]1)c1cccc(C(F)(F)F)c1 (stereo not drawn) [Example 18, 2-({4-[(2-imino-2,3-dihydro-1,3-oxazol-3-yl)methyl]-1H-1,3-benzodiazol-2-yl}amino)-2-[3-(trifluoromethyl)phenyl]propan-1-ol]	< 1000 nM
CC(Nc1nc2c(Cn3ccoc3=N)cccc2[nH]1)c1cccc(C(F)(F)F)c1 (stereo not drawn) [Example 4, 4-[(2-imino-2,3-dihydro-1,3-oxazol-3-yl)methyl]-N-{1-[3-(trifluoromethyl)phenyl]ethyl}-1H-1,3-benzodiazol-2-amine]	< 1000 nM
Cc1cn(Cc2cccc3[nH]c(NC(C)(CO)c4cccc(C(F)(F)F)c4)nc23)c(=N)o1 (stereo not drawn) [Example 24, 2-({4-[(2-imino-5-methyl-2,3-dihydro-1,3-oxazol-3-yl)methyl]-1H-1,3-benzodiazol-2-yl}amino)-2-[3-(trifluoromethyl)phenyl]propan-1-ol]	< 1000 nM
CC(CO)(Nc1nc2c(Cn3ccoc3=N)cccc2[nH]1)c1ccc(F)c(Cl)c1 (single isomer, unassigned; (+)) [Example 8b, (+)-2-(3-chloro-4-fluorophenyl)-2-({4-[(2-imino-2,3-dihydro-1,3-oxazol-3-yl)methyl]-1H-1,3-benzodiazol-2-yl}amino)propan-1-ol]	< 30000 nM
Cc1cc(NCc2cccc3[nH]c(NC(C)(CO)c4ccc(F)c(Cl)c4)nc23)no1 (stereo not drawn) [Example 12, 2-(3-chloro-4-fluorophenyl)-2-[(4-{[(5-methyl-1,2-oxazol-3-yl)amino]methyl}-1H-1,3-benzodiazol-2-yl)amino]propan-1-ol]	< 1000 nM
CC(CO)(Nc1nc2c(CN3CCNC3=O)cccc2[nH]1)c1ccc(F)c(Cl)c1 (stereo not drawn) [Example 34, 1-[(2-{[2-(3-chloro-4-fluorophenyl)-1-hydroxypropan-2-yl]amino}-1H-1,3-benzodiazol-4-yl)methyl]imidazolidin-2-one]	< 30000 nM
CC(CO)(Nc1nc2c(Cn3ccsc3=N)cccc2[nH]1)c1ccc(F)c(Cl)c1 (stereo not drawn) [Example 32, 2-(3-chloro-4-fluorophenyl)-2-({4-[(2-imino-2,3-dihydro-1,3-thiazol-3-yl)methyl]-1H-1,3-benzodiazol-2-yl}amino)propan-1-ol]	< 1000 nM
CC(CCO)(Nc1nc2c(Cn3ccoc3=N)cccc2[nH]1)c1cccc(C(F)(F)F)c1 (stereo not drawn) [Example 26, 3-({4-[(2-imino-2,3-dihydro-1,3-oxazol-3-yl)methyl]-1H-1,3-benzodiazol-2-yl}amino)-3-[3-(trifluoromethyl)phenyl]butan-1-ol]	< 30000 nM
CC(CO)(Nc1nc2c(CNc3ccon3)cccc2[nH]1)c1ccc(F)c(Cl)c1 (stereo not drawn) [Example 9, 2-(3-chloro-4-fluorophenyl)-2-[(4-{[(1,2-oxazol-3-yl)amino]methyl}-1H-1,3-benzodiazol-2-yl)amino]propan-1-ol]	< 1000 nM
CC(CO)(Nc1nc2c(Cn3ccoc3=N)cccc2[nH]1)c1ccc(Cl)c(Cl)c1 (stereo not drawn) [Example 19, 2-(3,4-dichlorophenyl)-2-({4-[(2-imino-2,3-dihydro-1,3-oxazol-3-yl)methyl]-1H-1,3-benzodiazol-2-yl}amino)propan-1-ol]	< 1000 nM
CC(C)(Nc1nc2c(Cn3ccoc3=N)cccc2[nH]1)c1cccc(Cl)c1 [Example 2, N-[2-(3-chlorophenyl)propan-2-yl]-4-[(2-imino-2,3-dihydro-1,3-oxazol-3-yl)methyl]-1H-1,3-benzodiazol-2-amine]	< 1000 nM
